Experimental data reported in PMC6283615, “Anilinoquinoline based inhibitors of trypanosomatid proliferation” (PLoS Neglected Tropical Diseases, 2018).
Converted amounts (≈) assume the structure as drawn. Read-outs that look alike come from different tables or passages of the source.

Legend:
[1] = tested on: T. vivax STIB 719 / ILRAD 560; experiment: Ex vivo drug sensitivity assay for T. vivax (48 h); format: cell-based; conditions: Trypanosoma vivax, STIB719, 48 h
Protocol: Ex vivo drug sensitivity assay for T. vivax (48 h): Compounds were tested ex vivo against the STIB 719 / ILRAD 560 T. vivax (drug sensitive) strain which originated from the Y486 strain, isolated from a naturally infected bovine in 1976 in Zaria, Nigeria. Compounds were assayed in at least three separate, independent experiments and an 11-point dilution curve was used to determine the EC50 values. Bloodstream form trypanosomes were harvested from a highly parasitaemic mouse (via cardiac puncture) and were incubated with test compounds for 45 h at 37°C in a humidified atmosphere containing 5% CO2, supported in HMI-9 medium containing 20% bovine serum. Thereafter, Resazurin dye was added to monitor trypanosome viability as described in the preceding section.

[2] = Rat hepatocyte intrinsic clearance; format: in vitro ADME; conditions: for hepatocyte CLint: hepatocytes
[3] = tested on: T. cruzi amastigote (Tulahuen strain expressing β-galactosidase); experiment: Intracellular T. cruzi assay in 3T3 cells (beta-galactosidase, 96 h); format: cell-based, Trypanosoma cruzi; conditions: read-out: T. cruzi amastigote EC50
Summary of the method: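 3T3 cells in phenol-red-free DMEM with 2% FBS were infected with Tulahuen β-galactosidase trypomastigotes, 5×10^4 per well, and exposed to compounds from 50 μM in 1:2 serial dilutions, in triplicate. After 96 h at 37°C, 5% CO2, 500 μM CPRG in PBS with 0.5% NP40 was added for 4 h; absorbance was read at 590–595 nm.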

L. major amastigote = experiment: L. major intracellular amastigote luciferase assay in RAW 264.7 macrophages; format: cell-based, Leishmania major; conditions: intracellular amastigotes in RAW 264.7 macrophages, 96 h
Summary of the method: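 Murine RAW 264.7 macrophages were infected overnight with luciferase-expressing L. major metacyclic promastigotes (MOI 1:10). Non-internalized parasites were washed off before 96 h compound exposure (0.5–10,000 ng/mL) at 37°C, 5% CO2.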

[4] = Human liver microsome intrinsic clearance; format: in vitro ADME; conditions: for microsomal CLint: liver microsomes
[5] = tested on: T. b. brucei (strain 427); experiment: T. b. brucei proliferation assay (PrestoBlue, 48 h); format: cell-based, Trypanosoma brucei brucei
Summary of the method: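 T. b. brucei strain 427, 2.5×10^3 per well in HMI-9, exposed to compounds from 50 μM in 1:2 dilutions, in triplicate. Incubated 48 h at 37°C, 5% CO2. PrestoBlue added for 4 h more, fluorescence read at ex 530/em 590 nm.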

LogD7.4 = format: physicochemical; conditions: pH 7.4
Aqueous solubility = format: physicochemical
T. congolense IL3000 = experiment: In vitro drug sensitivity assay for T. congolense (72 h); format: cell-based; conditions: Trypanosoma congolense, IL3000 strain
Protocol: In vitro drug sensitivity assay for T. congolense (72 h): Compounds were tested in vitro for efficacy against the IL3000 T. congolense (drug sensitive) strain which was originally derived from the Trans Mara I strain, isolated from a bovine in 1966 in Kenya. […] Compounds were assayed in at least three separate, independent experiments and an 11-point dilution curve was used to determine the EC50 values. Bloodstream form trypanosomes were supported in HMI-9 medium containing 20% bovine serum and were incubated with test compounds for 69 h at 34°C in a humidified atmosphere containing 5% CO2. Thereafter, 10 μL of Resazurin dye (12.5 mg in 100 mL of phosphate-buffered saline, Sigma-Aldrich, Buchs, Switzerland) was added for an additional 3 h. Plates were read using a fluorescence plate reader (Spectramax, Gemini XS, Bucher Biotec, Basel, Switzerland) using an excitation wavelength of 536 nm and an emission wavelength of 588 nm.

NIH/3T3 cells = experiment: Drug toxicity to 3T3 cells (Alamar Blue, 96 h); format: cell-based
Protocol: In a 96-well plate, 5×10^4 NIH/3T3 (ATCC CRL-1658) cells (purchased from ATCC) in DMEM without phenol red supplemented with 2% FBS were added to each well. Cells were incubated for 2 h to allow for attachment. Compounds were added in triplicates at 200 μM and in serial dilutions 1:2 and incubated at 37°C, 5% CO2 for 96 h. […] Following incubation, 10 μL of Alamar Blue (ThermoFisher) were added to each well and cells incubated at 37°C, 5% CO2 for 4 h. Absorbance was read at 590–595 nm.

[6] = Human plasma protein binding; format: in vitro ADME
HepG2 cells = experiment: Drug toxicity to HepG2 cells (MTT, 48 h); format: cell-based, human; conditions: tested concentration ranges based on compound solubility
Protocol: HepG2 cells were cultured in complete Minimal Essential Medium prepared by supplementing MEM with 0.19% sodium bicarbonate, 10% heat inactivated FBS, 2 mM L-glutamine, 0.1 mM MEM non-essential amino, 0.009 mg/mL insulin, 1.76 mg/mL bovine serum albumin, 20 units/mL penicillin–streptomycin, and 0.05 mg/mL gentamycin. HepG2 cells cultured in complete MEM were first washed with 1× Hank’s Balanced Salt Solution (Invitrogen #14175095), trypsinized using a 0.25% trypsin/EDTA solution, assessed for viability using trypan blue, and resuspended at 250,000 cells/mL. Using a Tecan EVO Freedom robot, 38.3 μL of cell suspension were added to each well of clear, cell culture-treated 384-well microtiter plates for a final concentration of 9570 liver cells per well, and plated cells were incubated overnight in 5% CO2 at 37°C. Drug plates were prepared with the Tecan EVO Freedom using sterile 96 well plates containing twelve duplicate 1.6-fold serial dilutions of each test compound suspended in DMSO. 4.25 μL of diluted test compound was then added to the 38.3 μL of media in each well providing a […] final dilution of compound. Compounds were tested from a range of 57 ng/mL to 10,000 ng/mL for all assays. Mefloquine was used as a plate control for all assays with a concentration ranging from 113 ng/mL to 20,000 ng/mL. After a 48 h incubation period, 8 μL of a 1.5 mg/mL solution of MTT diluted in complete MEM media was added to each well. All plates were subsequently incubated in the dark for 1 h at room temperature. After incubation, the media and drugs in each well was removed by shaking the plate over sink, and the plates were left to dry in a fume hood for 15 mins. Next, 30 μL of isopropanol acidified by addition of HCl at a final concentration of 0.36% was added to dissolve the formazan dye crystals created by reduction of MTT. Plates are put on a 3-D rotator for 15–30 mins. Absorbance was determined in all wells using a Tecan iControl 1.6 Infinite plate reader.

[7] = Trypanosoma cruzi, TULAHUEN, NIH3T3, 96 h
[8] = intracellular in 3T3 cells, 96 h

Compound	EC50 [1]	hepatocyte CLint [2]	EC50 [3, 7]	EC50 (L. major amastigote; Leishmania major, RAW264.7)	microsomal CLint [4]	EC50 ([5]; Trypanosoma brucei)	logD (LogD7.4)	solubility (Aqueous solubility)	EC50 (T. congolense IL3000)	Rat Hepatocyte CLint [2]	EC50 [3, 8]	3T3 TC50 (NIH/3T3 cells)	Human PPB [6]	EC50 (L. major amastigote)	Human Liver Microsome CLint [4]	EC50 [5]	LogD7.4 (LogD7.4)	HepG2 TC50 (HepG2 cells)
CN1CCN(c2nsnc2-c2ccc3c(Nc4ccc(OCc5cccc(F)c5)c(Cl)c4)ccnc3c2)CC1 [Compound 15]	0.21 µM	35 µL/min/1e6 cells	4.7 µM	0.96 µM	35 µL/min/mg	0.14 µM	4.1	< 0.1 µM	0.39 µM	–	–	–	–	–	–	–	–	–
CC[n+]1c(-c2ccccc2)c2cc(N/N=N/c3cccc(C(=N)N)c3)ccc2c2ccc(N)cc21 [Isometamidium, isometamidium chloride, reference compound]	0.00012 µM	–	–	–	–	–	–	–	0.006 µM	–	–	–	–	–	–	–	–	–
Cc1nn(C)c(C)c1Nc1ccc2c(Nc3cnccn3)ccnc2c1 [NEU-2142]	–	–	–	–	–	–	–	570 µM (≈ 197 µg/mL)	–	32 μL/min/10^6 cells	> 50 µM	> 100 µM	59%	26 µM	13 µL/min/mg	23 µM	2	39 µM
Cc1ccc(-c2ccc3c(Nc4cnccn4)ccnc3c2)o1 [NEU-2133]	–	–	–	–	–	–	–	4 µM (≈ 1.21 µg/mL)	–	290 μL/min/10^6 cells	0.79 µM	> 50 µM	99%	33 µM	190 µL/min/mg	5.3 µM	4	50 µM
Cn1ccnc1Nc1ccc2c(Nc3cnccn3)ccnc2c1 [NEU-2147]	–	–	–	–	–	–	–	160 µM (≈ 50.8 µg/mL)	–	37 μL/min/10^6 cells	> 50 µM	> 100 µM	57%	5.5 µM	12 µL/min/mg	49 µM	1.7	42 µM
c1cnc(Nc2ccnc3cc(Nc4nccnn4)ccc23)cn1 [NEU-2145]	–	–	–	–	–	–	–	3 µM (≈ 0.949 µg/mL)	–	> 300 μL/min/10^6 cells	> 50 µM	> 50 µM	75%	28 µM	42 µL/min/mg	4.7 µM	2.1	11 µM
CC(C)(C)OC(=O)Nc1ccc2c(Nc3ccc(OCc4cccc(F)c4)c(Cl)c3)ccnc2c1 [Compound 21]	0.29 µM	48 µL/min/1e6 cells	0.6 µM	1.1 µM	29 µL/min/mg	0.15 µM	4.3	0.2 µM (≈ 0.0988 µg/mL)	0.83 µM	–	–	–	–	–	–	–	–	–
Cn1nccc1Nc1ccc2c(Nc3cnccn3)ccnc2c1 [NEU-2144]	–	–	–	–	–	–	–	100 µM (≈ 31.7 µg/mL)	–	16 μL/min/10^6 cells	> 50 µM	> 50 µM	69%	28 µM	10 µL/min/mg	14 µM	2.4	35 µM
COc1ccc(Nc2ccnc3cc(-c4ccc(C)o4)ccc23)cc1Cl [NEU-2134]	–	–	–	–	–	–	–	0.1 µM (≈ 0.0365 µg/mL)	–	193 μL/min/10^6 cells	1.2 µM	> 100 µM	> 99%	27 µM	> 300 µL/min/mg	> 20 µM	4.8	42 µM
c1cnc(Nc2ccnc3cc(Nc4nccs4)ccc23)cn1 [NEU-2141]	–	–	–	–	–	–	–	4 µM (≈ 1.28 µg/mL)	–	270 μL/min/10^6 cells	22 µM	24 µM	91%	24 µM	68 µL/min/mg	4.4 µM	3.3	7.1 µM
N=C(N)c1ccc(/N=N/Nc2ccc(C(=N)N)cc2)cc1 [Diminazene, diminazene aceturate, reference compound]	0.1 µM	–	–	–	–	0.009 µM	–	–	0.13 µM	–	–	–	–	–	–	–	–	–
CN1CCN(c2ncc(-c3ccc4c(Nc5ccc6[nH]nnc6c5)ccnc4c3)cn2)CC1 [NEU-1957]	–	–	–	–	–	–	–	< 1 µM	–	51 μL/min/10^6 cells	> 50 µM	> 100 µM	91%	21 µM	120 µL/min/mg	21 µM	3.3	14 µM
